Data from EP0215701A1, “Esters of cyclopropanecarboxylic acids and 2,3-dihydro-4-phenyl-1H-inden-2-ol, their preparation, their use as parasiticides and compositions containing them” (ROUSSEL-UCLAF, priority 1985, dated 1987).

Test system: Tétranychus urticae
Assay: Adulticide test on Tétranychus urticae (treated bean plants)
Assay type: in vivo
Conditions: bean plants sprayed at different doses, infested with 25 females per leaf, 22-23°C, 60-65% relative humidity; live and dead mites counted 24 h and 48 h after treatment
Source text: On utilise des plants de haricots comportant deux feuilles qui sont traitées au pistolet Fisher à différentes doses des produits à tester. Après séchage, ces plants sont infestés à raison de 25 femelles de Tétranychus urticae par feuille et maintenus à 22-23◊C, 60 - 65% d'humidité relative. Les dénombrements des acariens vivants et morts sont effectués 24 heures et 48 heures après traitement.

## CC(C)(C)OC(=O)/C(F)=C\[C@H]1[C@@H](C(=O)OC2Cc3cccc(-c4ccccc4)c3C2)C1(C)C (stereo partly drawn) [Exemple 4, /1R-/1α,3α (E)/ 3-(3-terbutoxy-3-oxo-2-fluoro-1-propényl) -2,2-diméthyl cyclopropane carboxylatede 2,3-dihydro-4-phényl-1H-inden-2-yle]
  CL 50: 173 mg/hl
